Data taken from ChEMBL document CHEMBL4482307 (2014).
Active and inactive are the calls of the source. The calls are words filed in the database; no cut-off is given here.

Key:
c-Myc/Max (Homo sapiens) [1] = molecular target: T1, c-Myc/Max (Homo sapiens) (UniProt P01106+P61244); experiment: (§1) Inhibition of His6-tagged homogeneously purified recombinant Myc bHLH-LZ domain (unknown origin)/His6-tagged Max (151 residues) (unknown origin) interaction assessed as reduction in Myc/Max/DNA ternary complex formation using fluorescently-tagged (FAM) E-Box-containing double-stranded oligonucleotide at 100 uM by EMSA relative to control; type: protein-complex assay
Daudi = experiment: Antiproliferative activity against human Daudi cells assessed as reduction in cell proliferation incubated for 3 to 4 days by MTT assay; type: functional, cell-based
HL-60 [2] = experiment: Antiproliferative activity against human HL60 cells assessed as reduction in cell proliferation incubated for 3 to 4 days by MTT assay; type: functional, cell-based
c-Myc/Max (Homo sapiens) [3] = molecular target: T1, c-Myc/Max (Homo sapiens); experiment: Inhibition of Myc/Max protein interaction in human HL60 cells assessed as reduction in Myc/Max heterodimer formation at 1 to 12 uM by co-immunoprecipitation assay; type: cell-based
c-Myc/Max = c-Myc/Max (Homo sapiens, UniProt P01106); experiment: as §1, with “oligonucleotide” for “oligonucleotide at 100 uM”; type: protein-complex assay
HL-60 [4] = experiment: Induction of cell cycle arrest in human HL60 cells assessed as accumulation at G2/M phase at 10 uM incubated for 24 to 48 hrs by propidium iodide staining based flow cytometric analysis (reference value: 14%); type: functional
[5] = molecular target: Myc proto-oncogene protein (Homo sapiens) (UniProt P01106); experiment: Inhibition of Myc in human HL60 cells co-transfected with Myc-responsive E-box elements assessed as reduction c-Myc promoter-mediated luciferase expression at 10 to 50 uM after 6 hrs; type: cell-based
HL-60 [6] = experiment: Induction of cell cycle arrest in human HL60 cells assessed as accumulation at S phase at 10 uM incubated for 24 to 48 hrs by propidium iodide staining based flow cytometric analysis (reference value: 50%); type: functional
HL-60 [7] = experiment: Induction of cell cycle arrest in human HL60 cells assessed as accumulation at S phase at 5 uM incubated for 24 to 48 hrs by propidium iodide staining based flow cytometric analysis (reference value: 50%); type: functional
HL-60 [8] = experiment: Induction of cell cycle arrest in human HL60 cells assessed as accumulation at G0/G1 phase incubated for 24 to 48 hrs by propidium iodide staining based flow cytometric analysis; type: functional
HL-60 [9] = experiment: Induction of cell cycle arrest in human HL60 cells assessed as accumulation at G0/G1 phase at 5 uM incubated for 24 to 48 hrs by propidium iodide staining based flow cytometric analysis (reference value: 36%); type: functional
HL-60 [10] = experiment: Induction of cell cycle arrest in human HL60 cells assessed as accumulation at G0/G1 phase at 10 uM incubated for 24 to 48 hrs by propidium iodide staining based flow cytometric analysis (reference value: 36%); type: functional
HL-60 [11] = experiment: Induction of cell cycle arrest in human HL60 cells assessed as accumulation at G2/M phase at 5 uM incubated for 24 to 48 hrs by propidium iodide staining based flow cytometric analysis (reference value: 14%); type: functional
[12] = Half life in plasma (unknown origin); type: ADME, cell-free

Structure (SMILES) | inhibition (c-Myc/Max (Homo sapiens) [1]) | IC50 (Daudi) | IC50 (HL-60 [2]) | other results
O=[N+]([O-])c1ccc(Nc2cccc(-c3ccccc3)c2)c2nonc12 | 20% |  |  | 
O=C(OCc1ccccc1)c1ccc(Nc2ccc([N+](=O)[O-])c3nonc23)cc1 |  | 3.5 µM | 7.2 µM | 
O=C(O)c1cc([N+](=O)[O-])ccc1Nc1ccccc1-c1ccccc1 | 49% |  |  | 
O=C(OCC(F)(F)F)c1ccc(Nc2ccc([N+](=O)[O-])c3nonc23)cc1 |  | 1.9 µM | 8.5 µM | inhibition (c-Myc/Max (Homo sapiens) [3]): Active
CCOC(=O)c1ccc(Nc2ccc([N+](=O)[O-])c3nonc23)cc1 |  | 7.4 µM | > 25 µM | 
CC(=O)OCOC(=O)c1ccc(Nc2ccc([N+](=O)[O-])c3nonc23)cc1 |  | 30.7 µM | 31.9 µM | 
O=C(Oc1ccccc1)c1ccc(Nc2ccc([N+](=O)[O-])c3nonc23)cc1 |  | 2.5 to 3.1 µM |  | inhibition (c-Myc/Max (Homo sapiens) [3]): Active; IC50 (c-Myc/Max): 39.7 µM
COC(=O)c1ccc(Nc2ccc([N+](=O)[O-])c3nonc23)cc1 |  | 7.8 µM | 20 µM | 
O=C(O)c1ccc(Nc2ccc([N+](=O)[O-])c3nonc23)cc1 | 93 to 94% |  |  | 
CC(C)OC(=O)c1ccc(Nc2ccc([N+](=O)[O-])c3nonc23)cc1 |  | 3.1 µM | 9.3 µM | 
COC(=O)c1ccc(Nc2ccc([N+](=O)[O-])c3nonc23)c(-c2ccc(C)cc2)c1 |  |  |  | Activity (HL-60 [4]): 17%; inhibition [5]: Active; Activity (HL-60 [6]): 23%; Activity (HL-60 [7]): 44%; Activity (HL-60 [8]): Dose-dependent effect; Activity (HL-60 [9]): 44%; Activity (HL-60 [10]): 59.5%; Activity (HL-60 [11]): 12%
O=[N+]([O-])c1ccc(Nc2ccccc2-c2ccccc2)c2nonc12 | 38 to 39% |  |  | half-life [12]: 37 min
O=[N+]([O-])c1ccc(Nc2ccccc2Br)c2nonc12 | 39% |  |  | 
